Experimental findings from US20260374739A1, “SMALL MOLECULAR WEIGHT CHEMICAL COMPOUND TO ANTAGONIZE EPH-EPHRIN TETRAMERIZATION AND INHIBIT BIDIRECTIONAL SIGNALING” (THE BOARD OF REGENTS OF THE UNIVERSITY OF TEXAS SYSTEM, priority 2022, published 2026) are described below.

Structures are written as SMILES. Where “and” joins values, the source holds several entries; their conditions need not be identical. Equal values may be shown once. Entries after “also recorded” stand apart in the source; their conditions may differ. Marks after values point to notes of the source that are not given here.

As usually defined, the IC50 is the concentration that inhibits the measured activity by half. The low end stands for greater potency, the high end for weaker potency.

In assay [1] the target is T1, EphrinB2-EphB2 (Homo sapiens, UniProt P29323).
T1 construct: soluble human EphB1-His, EphB2-His, and EphB4-His ectodomains; commercially available human EphrinB1-Fc (EB1), EphrinB2-Fc (EB2), and EphrinB3-Fc (EB3) ectodomain proteins; purchased
T1 sequence (P29323 19-543 limits assumed): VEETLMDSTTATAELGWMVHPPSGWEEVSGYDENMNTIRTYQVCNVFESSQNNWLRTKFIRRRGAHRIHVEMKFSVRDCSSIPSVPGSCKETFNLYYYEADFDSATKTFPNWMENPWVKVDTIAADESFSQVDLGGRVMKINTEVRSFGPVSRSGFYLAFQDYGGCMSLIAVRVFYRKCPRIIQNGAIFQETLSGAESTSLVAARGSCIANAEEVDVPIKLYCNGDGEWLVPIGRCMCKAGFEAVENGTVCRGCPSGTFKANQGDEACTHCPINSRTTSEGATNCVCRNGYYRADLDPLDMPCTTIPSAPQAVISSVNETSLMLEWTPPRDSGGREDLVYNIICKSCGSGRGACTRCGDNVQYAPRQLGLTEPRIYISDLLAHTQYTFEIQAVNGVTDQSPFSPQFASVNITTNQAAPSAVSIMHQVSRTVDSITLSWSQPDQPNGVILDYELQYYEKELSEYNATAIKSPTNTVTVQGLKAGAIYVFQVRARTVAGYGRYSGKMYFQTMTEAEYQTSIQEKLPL
The experiment in a line: Octet tetramerization inhibition, immobilized human EphrinB2 binding to 50 nM soluble human EphB2. On the technique in general: Biolayer interferometry detects binding as a change in optical thickness at a sensor tip.

In assay [2] the target is T2, EphrinB2-EphB4 (Homo sapiens, UniProt P54760).
T2 construct: soluble human EphB1-His, EphB2-His, and EphB4-His ectodomains; commercially available human EphrinB1-Fc (EB1), EphrinB2-Fc (EB2), and EphrinB3-Fc (EB3) ectodomain proteins; purchased
T2 sequence (P54760 16-539 limits assumed): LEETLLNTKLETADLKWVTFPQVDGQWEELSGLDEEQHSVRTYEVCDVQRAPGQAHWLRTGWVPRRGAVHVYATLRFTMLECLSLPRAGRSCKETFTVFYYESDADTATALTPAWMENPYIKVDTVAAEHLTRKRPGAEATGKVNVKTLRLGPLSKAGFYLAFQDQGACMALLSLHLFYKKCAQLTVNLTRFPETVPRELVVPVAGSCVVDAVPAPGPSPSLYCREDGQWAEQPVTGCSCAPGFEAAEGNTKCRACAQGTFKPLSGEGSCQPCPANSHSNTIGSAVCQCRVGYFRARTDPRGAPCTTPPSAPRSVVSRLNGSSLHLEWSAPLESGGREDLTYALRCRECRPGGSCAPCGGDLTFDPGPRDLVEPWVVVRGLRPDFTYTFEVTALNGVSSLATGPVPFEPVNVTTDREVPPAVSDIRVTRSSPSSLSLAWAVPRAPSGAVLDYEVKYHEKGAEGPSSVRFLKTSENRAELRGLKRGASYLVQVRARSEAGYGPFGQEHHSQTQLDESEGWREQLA
Kind of assay: Octet 80 sec association/500 sec dissociation, immobilized human EphrinB2-Fc binding to soluble human EphB4-His. The conditions noted are these: for selectivity among EphrinB2-EphB1/B2/B4: 3.2 μM. On the procedure: (§1) In another experiment, whether certain A20 analogs might have specificity for different Eph receptors was tested. An Octet RED384 system was used to obtain biophysical ON-OFF binding data (association-dissociation) for the three different human EphrinB2-EphB1, EphrinB2-EphB2, and EphrinB2-EphB4 protein-protein interactions and to assess the effect of A20 chemicals on the binding kinetics.
(§2) FIGS. 72A-72C show three example Octet sensorgram response traces for the immobilized human EphrinB2 ectodomain protein binding to soluble forms of the human EphB1, EphB2, and EphB4 ectodomain proteins, in the absence or presence of an A20 chemical (buffer conditions are always PBSTD:PBS with 0.05% Tween-20, 1% DMSO, and +/− indicated chemical). After loading EphrinB2-Fc protein to Octet AHC biosensors, washing, and obtaining stable baseline measurements in the appropriate PBSTD (either with or without indicated chemical), the sensors are placed in its buffer that also contains the indicated soluble EphB protein for the association step (0-80″), and then returned to its buffer for the dissociation step (81″-580″). In each figure (FIGS. 72A-72C), a sensorgram run using 10 μM of the 2×HCl salt form of A20-I is compared to the no compound control run to exemplify the maximum level of reduced response signal typically obtained with a potent A20 chemical.
(§3) Because the response levels during the dissociation step plateau for the EphrinB2-EphB2 and EphrinB2-EphB1 interactions by the first 80″, AUCs were also calculated for run data encompassing the first 160″ of each experiment to account for both the 80″ association data (red asterisks) and the first 80″ of dissociation data (marked by green line and asterisks).
(§4) The selectivity of another A20 analog (a 3×HCL salt form of compound BQPB4) in comparison to previously tested compound, A20-1, was tested as described in Example 27 above.
(§5) Further to the experiments listed above, a series of dose-response experiments were conducted to determine the IC50 of a selected A20 chemical (A20-1) on the kinetics of human EphrinB2 ligand ectodomain protein binding to its cognate human EphB1, EphB2, and EphB4 receptor ectodomain proteins. FIG. 74A-74C are representative sensorgrams showing the effect of 0, 0.1, 0.2, 0.4, 0.8, 1.6, and 3.2 μM, concentrations of the 2×HCl salt of A20-I along with a 10 μM max standard (also A20-1) on three different Ephrin-EphB interactions (e.g., EphB1 in FIG. 74A, EphB2 in FIG. 74B and EphB4 in FIG. 74C). […] Additional IC50 values were determined at specific timepoints, at 75″ into the association step and at 55″ into the dissociation step (135″).
(§6) All absolute and relative IC50 values are provided in the Table 6 below, where absolute are based off the full binding sensorgram traces, and relative are based off of the max control traces.
(§7) In another experiment, the % inhibition for various A20 analog chemicals against the three different EphrinB2-EphB protein interactions was determined. Specifically, the percent inhibition for immobilized human EphrinB2-Fc binding to 25 nM soluble human EphB1-His (FIG. 76A, enlarged in FIG. 76D), EphB2-His (FIG. 76B, enlarged in FIG. 76E), and EphB4-His (FIG. 76C, enlarged in FIG. 76F) with 3511-I, 8009-9255, QTM-Br, A19, A19-NO2, and IM (all at 3.2 μM) was determined.

Assay [3] deals with T1, EphrinB2-EphB2. The experiment in a line: Octet 80 sec association/500 sec dissociation, immobilized human EphrinB2-Fc binding to soluble human EphB2-His. The conditions noted are these: immobilized human EphrinB2, 25 nM soluble human EphB2. As for the experimental part:
as §1, §2, §3, §4, §5, §6, §7

Setting [4] is: Absolute AUC/IC50, Table A, EphrinB2-EphB2.
Setting [5] is: Absolute Association IC50 (300 sec), Table A, EphrinB2-EphB2.
The mark [6] stands for this setting: Absolute Dissociation IC50 (450 sec), Table A, EphrinB2-EphB2.
Where [7] appears, read: Relative AUC/IC50, Table A, EphrinB2-EphB2, compound 7: association only.
[8] abbreviates: Relative Association IC50 (300 sec), Table A, EphrinB2-EphB2.
Where [9] appears, read: Relative Dissociation IC50 (450 sec), Table A, EphrinB2-EphB2.
Setting [10] is: tetramerization inhibitor IC50 (relative), association step, surmountable tetramer.

With `Oc1ccc(CN2CCOCC2)c2cccnc12` [Compound 2, 4-((8-hydroxyquinolin-1-ium-5-yl)methyl)morpholin-4-ium chloride], the IC50 is over 6.4 µM in assay [1] (setting [4]); over 6.4 µM in assay [1] (setting [5]); over 6.4 µM in assay [1] (setting [6]); 2.29 µM in assay [1] (setting [7]); 2.09 µM in assay [1] (setting [8]); 2.75 µM in assay [1] (setting [9]).

The molecule `O=S1(=O)CCN(Cc2cc(I)c(O)c3ncccc23)CC1` [Compound 18, 4-((8-hydroxy-7-iodoquinolin-5-yl)methyl)thiomorpholine 1,1-dioxide] displayed an IC50 in assay [1] (setting [10]) of about 0.8 µM.

Consider `Oc1ccc(CN2CCN(c3ccccc3)CC2)c2cccnc12` [Compound 22, 5-((4-phenylpiperazin-1-yl)methyl)quinolin-8-ol], for which the IC50 in assay [1] (setting [4]) was over 3.2 µM; in assay [1] (setting [5]), over 3.2 µM; in assay [1] (setting [6]), over 3.2 µM; in assay [1] (setting [8]), 3 µM; in assay [1] (setting [10]), about 3 µM.

`Oc1ccc(CN2CCN(c3ccc(I)cc3)CC2)c2cccnc12` [Compound 31, 5-((4-(4-iodophenyl)piperazin-1-yl)methyl)quinolin-8-ol]: in assay [1], the “tetramerization inhibitor activity” value is on record as “appeared less potent”.

In the case of `O=[N+]([O-])c1ccc(N2CCN(Cc3ccc(O)c4ncccc34)CC2)cc1` [Compound 37, 5-((4-(4-nitrophenyl)piperazin-1-yl)methyl)quinolin-8-ol], the “disruption of unsurmountable tetramer” value in assay [1] (0.8-3.2 μM, listed as QPB-NO4) is “slight ability to disrupt the unsurmountable tetramer; also recorded: able to inhibit a small amount of the EphrinB2-EphB2 unsurmountable tetramer”. In assay [1] (setting [10]), this molecule came in with an IC50 of about 1.6 µM.

With `CC(=O)Nc1ccc(N2CCN(Cc3ccc(O)c4ncccc34)CC2)cc1` [Compound 50, N-(4-(4-((8-hydroxyquinolin-5-yl)methyl)piperazin-1-yl)phenyl)acetamide], the 50% inhibitory concentration (IC50) in assay [1] (setting [4]) was over 3.2 µM; in assay [1] (setting [5]) it was over 3.2 µM; in assay [1] (setting [6]), over 3.2 µM; in assay [1] (setting [8]), 2.77 µM; in assay [1] (setting [9]) it was 1.95 µM; in assay [1] (setting [10]), over 3 µM.

`O=C(Cc1ccccc1)Nc1ccc(N2CCN(Cc3cc(Br)c(O)c4ncccc34)CC2)cc1` [Compound 52, N-(4-(4-((7-bromo-8-hydroxyquinolin-5-yl)methyl)piperazin-1-yl)phenyl)-2-phenylacetamide]: in assay [2], the “selectivity among EphrinB2-EphB1/B2/B4” value was “less action toward EphB4 and EphB2 but high specificity for EphB1”. Further, the IC50 was over 3.2 µM in assay [1] (setting [4]); over 3.2 µM in assay [1] (setting [5]); over 3.2 µM in assay [1] (setting [6]); over 3.2 µM in assay [1] (setting [7]); 3.31 µM in assay [1] (setting [8]); over 3.2 µM in assay [1] (setting [9]). In assay [1] (setting [10]), this molecule had an IC50 of over 3 µM.

Take `Cc1ccc2c(CN3CCN(c4ccc(Br)cc4)CC3)ccc(O)c2n1` [Compound 60, 5-((4-(4-bromophenyl)piperazin-1-yl)methyl)-2-methylquinolin-8-ol]: the “tetramerization inhibitor activity” value in assay [1] is “appears to eliminate tetramerization inhibitor activity”. Moreover, the IC50 in assay [1] (setting [4]), in assay [1] (setting [5]), in assay [1] (setting [6]), in assay [1] (setting [7]), in assay [1] (setting [8]) and in assay [1] (setting [9]) was over 3.2 µM in each case.

For the molecule `COc1ccccc1N1CCN(Cc2ccc(O)c3ncccc23)CC1` [Compound 69, 5-((4-(2-methoxyphenyl)piperazin-1-yl)methyl)quinolin-8-ol], the “EphB2 Inhibition Percent, Inhibition of Association ONLY” value in assay [3] (at 3.2 μM and 80 seconds) was 3.6% and 0%. For the same molecule, the “EphB2 Inhibition Percent, Inhibition of Association-Dissociation” value in assay [3] (at 3.2 μM and 580 seconds) was 19.2% and 15.5%. For the same molecule, the “selectivity among EphrinB2-EphB1/B2/B4” value in assay [2] was “less action toward EphB4 and EphB2 but high specificity for EphB1”. Moreover, the “EphB4 Inhibition Percent, Inhibition of Association ONLY” value in assay [2] (at 3.2 μM and 80 seconds, immobilized human EphrinB2, 25 nM soluble human EphB4) was 0*/0*%. For the same molecule, the “EphB4 Inhibition Percent, Inhibition of Association-Dissociation” value in assay [2] (at 3.2 μM and 580 seconds, immobilized human EphrinB2, 25 nM soluble human EphB4) is 2.2% and 0%. Further, the half-inhibitory concentration (IC50) in assay [1] (setting [4]) is over 3.2 µM; in assay [1] (setting [5]), over 3.2 µM; in assay [1] (setting [6]) it was over 3.2 µM; in assay [1] (setting [7]), 2.01 µM; in assay [1] (setting [8]), 2.19 µM; in assay [1] (setting [9]) it was 1.7 µM.

`COc1ccc(N2CCN(Cc3cc(Br)c(O)c4ncccc34)CC2)cc1` [Compound 73]: the IC50 came to 2.29 µM in assay [1] (setting [4]); 2.51 µM in assay [1] (setting [5]); 1.51 µM in assay [1] (setting [6]); 1.2 µM in assay [1] (setting [8]); 1.07 µM in assay [1] (setting [9]).
